In patent publication US8440417B2, “Method for assaying compounds or agents for ability to displace potent ligands of hematopoietic prostaglandin D synthase” (Cayman Chemical Company, Incorporated, priority 2008, dated 2013):
Read-outs that look alike come from different tables or passages of the source.

Columns and labels:
[1] = target: T1, H-PGDS (Homo sapiens, UniProt O60760); settings: order of magnitude in words; cited from earlier work
[2] = target: MBP-H-PGDS fusion enzyme (Homo sapiens, UniProt O60760); assay: MBP-H-PGDS fluorescence polarization (FP) displacement assay; assay type: binding; settings: detection analyte Compound 20; mean ± spread, N in cell; read-out: MBP-H-PGDS FP Assay: test compound IC50
Sequence of MBP-H-PGDS fusion enzyme (O60760 2-199, looked up): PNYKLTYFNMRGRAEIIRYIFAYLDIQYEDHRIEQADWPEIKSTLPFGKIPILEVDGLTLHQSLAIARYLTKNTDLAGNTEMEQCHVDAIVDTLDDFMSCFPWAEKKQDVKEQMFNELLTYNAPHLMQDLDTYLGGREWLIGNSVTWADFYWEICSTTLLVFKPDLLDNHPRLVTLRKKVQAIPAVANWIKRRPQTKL
Method: Detection analyte and H-PGDS-MBP fusion enzyme were incubated in the presence of reduced glutathione (5 mM) for 30-60 minutes at room temperature and FP was measured using a TECAN SAFIRE 2 plate reader equipped with absorbance, fluorescence, fluorescence polarization and FRET capabilities. Assays were performed in 96-well microtiter plates in 100 μL of total sample volume. Excitation and emission wavelengths appropriate for the employed detection analyte were used.
H-PGDS-Maltose binding protein (MBP; 100 μl, 0.5 mg/ml) fusion (MBP-H-PGDS fusion) (FIG. 6) was diluted with 1×FP buffer (900 μL).
Into a 50 mL conical tube was added the H-PGDS 1×FP buffer (18.65 mL), H-PGDS FP fluorescent probe—green (138 μL), MBP-H-PGDS fusion dilution (880 μL), and glutathione solution (1,250 μL).
Assay cocktail (47.5 μL) was added to each plate well.
Test compound solutions (2.5 μL) were added to the wells. […] The IC50 for a particular test compound was obtained by performing a full concentration titration versus a full concentration titration of positive control. Comparison of a single concentration of a test compound to the maximum binding well provided an assessment of the relative affinity of the test compound for MBP-H-PGDS.
The plate was covered and incubated for 60-90 minutes at room temperature. The FP signal is stable for at least two hours.
Plates were read with excitation and emission wavelengths of 470 nm and 530 nm (for detection analyte comprising the fluorescein fluorophore), respectively.
fluorescence polarization of a molecule is defined as: Polarization (mP)=1,000×(Iparallel−Iperpendicular)/(Iparallel+Iperpendicular) where Iparallel is the parallel emission intensity measurement and Iperpendicular is the perpendicular emission intensity measurement.
The clone was then transformed into the expression strain BL21 (DE3) star cells and a glycerol stock was generated. The expected size is 66.29 kDa.

[3] = target: T1, H-PGDS; settings: [1-14C]PGH2 to [1-14C]PGD2, RIA; Aritake et al. 2006; read-out: Reported H-PGDS inhibition IC50; cited from earlier work
[4] = tested on: PGD2 levels in guinea pig lung tissues; settings: chronic treatment; Matsushita et al. 1998; cited from earlier work
[5] = target: T1, H-PGDS; settings: Taiho poster / patent application, method not stated; read-out: Reported H-PGDS inhibition IC50; cited from earlier work
[6] = target: T1, H-PGDS; settings: GSH-MCB conjugation, fluorometry; Evotec WO 2008/122787, AstraZeneca J. Med. Chem. 2008; read-out: Reported H-PGDS inhibition IC50; cited from earlier work

T1 sequence (O60760 whole entry, species assumed, the tested form may be a part): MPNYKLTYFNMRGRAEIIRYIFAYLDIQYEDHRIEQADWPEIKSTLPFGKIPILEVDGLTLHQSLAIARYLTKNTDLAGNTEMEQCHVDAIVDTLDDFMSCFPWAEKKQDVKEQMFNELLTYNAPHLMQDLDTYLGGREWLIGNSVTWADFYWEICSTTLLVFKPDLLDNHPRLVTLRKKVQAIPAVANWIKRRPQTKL

IC50 [2] | Compound | further results
 | COc1ccc(/C=C/C(=O)Nc2ccccc2C(=O)O)cc1OC [Tranilast] | IC50 against H-PGDS in known in vitro assays [1]: micromolar
15000 nM | c1ccc(C(OC2CCN(CCCc3nnn[nH]3)CC2)c2ccccc2)cc1 | IC50 [3]: 6000 nM; PGD2 levels in guinea pig lung tissues [4]: reduce PGD2 levels; IC50 against H-PGDS in known in vitro assays [1]: micromolar
250000 nM | O=C(c1cnc(-c2ccccc2)nc1)N1CCNCC1 [(2-phenylpyrimidin-5-yl)(piperazin-1-yl)methanone] | 
25 ± 7 nM | Cc1[nH]c(C(=O)CCCc2ccccn2)c(C)c1-c1nc2cc(C(=O)c3ccccc3)ccc2[nH]1 | IC50 [5]: 72 nM
125 nM | O=C(NCc1ccccc1)c1cnc(-c2ccccc2)nc1 | 
308 ± 11 nM | Cc1ccc2nc(NC(=O)N3CCN(C(=O)c4cccc(F)c4)CC3)sc2c1 | IC50 [6]: 1 to 10 nM
30 nM | O=C(NC1CCN(Cc2ccccc2)CC1)c1ccc(-c2ccccc2)nc1 | 
200 to 300 nM | NCCNS(=O)(=O)c1cccc(CNC(=O)c2cnc(-c3ccccc3)nc2)c1 [Compound 19, N-(3-(N-(2-aminoethyl)sulfamoyl)benzyl)-2-phenylpyrimidine-5-carboxamide] | 
375 ± 180 nM | O=C(NCCNc1ccccc1)c1cnc(-c2ccccc2)nc1 [2-phenyl-N-(2-(phenylamino)ethyl)pyrimidine-5-carboxamide] | 
38 ± 11 nM | O=C(Nc1ccc(N2CCOCC2)cc1)c1cnc(Oc2ccccc2)nc1 | IC50 [5]: 190 nM
900 ± 140 nM | Cc1nc(-c2cccc(F)c2)sc1C(=O)NCc1ccccc1 [N-benzyl-2-(3-fluorophenyl)-4-methylthiazole-5-carboxamide] | 
30 nM | O=C(NC1CCN(Cc2ccccc2)CC1)c1ccc(-c2cccc(F)c2)nc1 | 
575 ± 460 nM | COc1ccc(CNC(=O)c2ccc(-c3ccccc3)nc2)cc1OC [N-(3,4-dimethoxybenzyl)-6-phenylnicotinamide] | 
438 ± 265 nM | c1ccc(-c2ncc(-c3cc[nH]n3)s2)cc1 | 
50 ± 14 nM | O=C(NC1CCN(Cc2ccccc2)CC1)c1cnc(-c2ccccc2)nc1 | 
